{"source": "PubChem BioAssay AID179", "about": "(DTP/NCI, 2004)", "test_system": "CEM cells HIV-1 protection, formazan growth assay", "test": "NCI AIDS Antiviral Assay", "settings": "for IC50: measured here: growth of uninfected CEM cells", "in_short": "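Category rules: moderately active means at least 50% protection on retest, and confirmed active means 100% protection reproducibly. The underlying data came from a formazan growth assay in HIV-1-infected CEM cells.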", "note": "The source made the active and inactive calls.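 How the source made its calls: active means compounds giving half or more protection of infected cells from virus-caused growth loss, again on retest; inactive means the rest.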", "data": [{"compound": "CC(=O)OC1CCC2C3CCc4c(C)ccc(OS(=O)(=O)c5ccccc5)c4C3CCC12C", "note": "(centres undefined)", "values": [{"measurement": "EC50", "result": "> 200", "unit": "µM"}, {"measurement": "IC50", "result": "> 200", "unit": "µM"}]}, {"compound": "CCN(CC)C(=O)N1CN(c2ccccc2)C2(CCN(CCCC3(c4ccc(F)cc4)OCCO3)CC2)C1=O", "values": [{"measurement": "EC50", "result": "> 200", "unit": "µM"}, {"measurement": "IC50", "result": 27.5, "unit": "µM"}]}, {"compound": "CCCCCCCCCCCCCCCCOP(=O)(O)OCC(NC(C)=O)C(=O)O", "note": "(centres undefined)", "values": [{"measurement": "EC50", "result": "> 200", "unit": "µM"}, {"measurement": "IC50", "result": 63.1, "unit": "µM"}]}, {"compound": "O=C1OC(=O)c2c(O)cc(O)c(=O)cc21", "values": [{"measurement": "EC50", "result": "> 331", "unit": "µM"}, {"measurement": "IC50", "result": 209, "unit": "µM"}]}, {"compound": "COc1ccc(NC(=O)C(C#N)=C(SC)SC)cc1", "values": [{"measurement": "EC50", "result": "> 200", "unit": "µM"}, {"measurement": "IC50", "result": 7.94, "unit": "µM"}]}, {"compound": "c1cc2cc3c(cc2o1)OC[C@H]1c2cc4c(cc2O[C@@H]31)OCO4", "values": [{"measurement": "EC50", "result": "> 43.7", "unit": "µM"}, {"measurement": "IC50", "result": 10.5, "unit": "µM"}]}, {"compound": "O=C(c1ccccc1)C1(c2ccccc2)SSC1(C(=O)c1ccccc1)c1ccccc1", "note": "(centres undefined)", "values": [{"measurement": "EC50", "result": "> 100", "unit": "µM"}, {"measurement": "IC50", "result": "> 100", "unit": "µM"}]}, {"compound": "CCOC(=O)/C(Br)=C/SCCC(=O)O", "values": [{"measurement": "EC50", "result": "> 891", "unit": "µM"}, {"measurement": "IC50", "result": 174, "unit": "µM"}]}, {"compound": "CCn1c2ccccc2c(=O)c2c(OC)ccc(OC)c21", "values": [{"measurement": "outcome", "result": "inactive"}]}, {"compound": "COC(=O)C1C(=O)C(C(=O)OC)C2CCC1N2C", "note": "(centres undefined)", "values": [{"measurement": "EC50", "result": "> 200", "unit": "µM"}, {"measurement": "IC50", "result": 42.7, "unit": "µM"}]}, {"compound": "C[n+]1c(-c2ccc(/C=N\\Nc3ccnc(N/N=C/c4ccc(-c5cn6ccsc6[n+]5C)cc4)n3)cc2)cn2ccsc21", "values": [{"measurement": "EC50", "result": "> 41.7", "unit": "µM"}, {"measurement": "IC50", "result": 28.8, "unit": "µM"}]}, {"compound": "Nc1nc(Cl)cc(OCC2(CO)CCCCC2)n1", "values": [{"measurement": "EC50", "result": "> 200", "unit": "µM"}, {"measurement": "IC50", "result": 53.7, "unit": "µM"}]}, {"compound": "Cc1nc(NC(=S)NC(=O)c2ccc(Cl)c(Cl)c2)sc1C(=O)/C=C/c1ccccc1[N+](=O)[O-]", "values": [{"measurement": "EC50", "result": "> 19.1", "unit": "µM"}, {"measurement": "IC50", "result": "> 19.1", "unit": "µM"}]}, {"compound": "Cc1cc(O)c(C=NC(=S)c2ccncc2)c(=O)o1", "values": [{"measurement": "EC50", "result": "> 200", "unit": "µM"}, {"measurement": "IC50", "result": "> 200", "unit": "µM"}]}, {"compound": "CC[N+]1(C)CCC(O)(c2ccc(Cl)c(Cl)c2)C(C(=O)c2ccc(Cl)c(Cl)c2)C1", "note": "(centres undefined)", "values": [{"measurement": "EC50", "result": "> 200", "unit": "µM"}, {"measurement": "IC50", "result": 22.4, "unit": "µM"}]}, {"compound": "Cc1ccc(NC(=O)CC2SC(=Nc3cccc(Cl)c3C)NC2=O)cc1", "note": "(centres undefined)", "values": [{"measurement": "EC50", "result": "> 240", "unit": "µM"}, {"measurement": "IC50", "result": 110, "unit": "µM"}]}, {"compound": "Cc1cc2c(c(=O)o1)C(=O)CC(C)O2", "note": "(centres undefined)", "values": [{"measurement": "EC50", "result": "> 776", "unit": "µM"}, {"measurement": "IC50", "result": 117, "unit": "µM"}]}, {"compound": "CCOC1=NC(=O)CC(c2ccccc2)S1", "note": "(centres undefined)", "values": [{"measurement": "outcome", "result": "inactive"}]}, {"compound": "NC(c1ccccc1)P(=O)(OCc1ccc([N+](=O)[O-])cc1)OCc1ccc([N+](=O)[O-])cc1", "note": "(centres undefined)", "values": [{"measurement": "EC50", "result": "> 87.1", "unit": "µM"}, {"measurement": "IC50", "result": 53.7, "unit": "µM"}]}, {"compound": "CN1C/C(=C\\c2cccs2)C(=O)/C(=C/c2cccs2)C1", "values": [{"measurement": "EC50", "result": "> 200", "unit": "µM"}, {"measurement": "IC50", "result": 14.1, "unit": "µM"}]}, {"compound": "CC(=O)OC[C@]12[C@H](OC(C)=O)[C@H](OC(C)=O)[C@@H]3C(OC(C)=O)[C@@]14OC3(C)COC(=O)c1cccnc1CCC(C)C(=O)OC([C@H](O)[C@@H]2OC(=O)c1ccccc1)[C@]4(C)O", "note": "(some centres undefined)", "values": [{"measurement": "outcome", "result": "inactive"}]}, {"compound": "O=S1(=O)OCCOS(=O)(=O)C1(I)I", "values": [{"measurement": "EC50", "result": "> 550", "unit": "µM"}, {"measurement": "IC50", "result": 123, "unit": "µM"}]}, {"compound": "CC(C)(CO)CNc1cc(=O)[nH]c(N)n1", "values": [{"measurement": "EC50", "result": "> 200", "unit": "µM"}, {"measurement": "IC50", "result": "> 200", "unit": "µM"}]}, {"compound": "c1ccc(-c2cc(Nc3ccc4c(c3)OCO4)c3cc(C4CCCCC4)ccc3n2)cc1", "values": [{"measurement": "outcome", "result": "inactive"}]}, {"compound": "CCOC(=O)C(=O)Nc1c(N(CC)CC)n2ccccc2nc1=O", "values": [{"measurement": "EC50", "result": "> 676", "unit": "µM"}, {"measurement": "IC50", "result": "> 676", "unit": "µM"}]}, {"compound": "CC(=O)OC1COC(n2c(=S)n(-c3ccc(C)cc3)c(=O)c3ccccc32)C(OC(C)=O)C1OC(C)=O", "note": "(centres undefined)", "values": [{"measurement": "EC50", "result": "> 25.7", "unit": "µM"}, {"measurement": "IC50", "result": "> 25.7", "unit": "µM"}]}, {"compound": "c1cc(-c2nc(-c3ccncc3)nc(-c3ccncc3)n2)ccn1", "values": [{"measurement": "EC50", "result": "> 200", "unit": "µM"}, {"measurement": "IC50", "result": "> 200", "unit": "µM"}]}, {"compound": "CCOC(=O)/C(=C(/N)C1OC(COC(c2ccccc2)(c2ccccc2)c2ccccc2)C2OC(C)(C)OC12)C1CC(=O)N(C)C1=O", "note": "(centres undefined)", "values": [{"measurement": "EC50", "result": "> 200", "unit": "µM"}, {"measurement": "IC50", "result": 11.7, "unit": "µM"}]}, {"compound": "O=C(NCCCCNCCCNC(=O)c1ccc([N+](=O)[O-])cc1)c1ccc([N+](=O)[O-])cc1", "values": [{"measurement": "EC50", "result": "> 200", "unit": "µM"}, {"measurement": "IC50", "result": 112, "unit": "µM"}]}, {"compound": "Cc1cccc(C)c1NC(=O)CCC(=O)NC(N)=S", "values": [{"measurement": "EC50", "result": "> 339", "unit": "µM"}, {"measurement": "IC50", "result": "> 339", "unit": "µM"}]}, {"compound": "O=C1c2ccccc2-c2oc(=O)c3ccccc3c21", "values": [{"measurement": "EC50", "result": "> 40.7", "unit": "µM"}, {"measurement": "IC50", "result": "> 40.7", "unit": "µM"}]}, {"compound": "O=c1cc(O)nc(CO)[nH]1", "values": [{"measurement": "EC50", "result": "> 200", "unit": "µM"}, {"measurement": "IC50", "result": "> 200", "unit": "µM"}]}, {"compound": "CCN(CC)C(=O)c1c(Cl)cc(N(CC)CC)oc1=O", "values": [{"measurement": "EC50", "result": "> 832", "unit": "µM"}, {"measurement": "IC50", "result": "> 832", "unit": "µM"}]}, {"compound": "COc1cc2c(c(OC)c1OC)[C@@H]1CCCCC[C@@H]1CCC2=O", "values": [{"measurement": "EC50", "result": "> 251", "unit": "µM"}, {"measurement": "IC50", "result": 112, "unit": "µM"}]}]}
